For one compound, melting point results are on record in US20240308991A1, “PROCESS FOR THE SYNTHESIS OF REACTIVE CAR[…] ANTIGEN […] C[…] A CARRIER MATERIAL” (KORANEX CAPITAL, priority 2021, published 2024).

Turning to `C=CCO[C@H]1O[C@H](CO)[C@H](O)[C@H](O[C@@H]2O[C@H](CO)[C@H](O)[C@H](O)[C@H]2O)[C@H]1NC(C)=O`, the melting point (in general, the temperature, or range, at which the solid turns liquid) is 230 to 232 °C.
